Reference: patent US20210340142A1, “SALT FORM AND CRYSTAL FORM OF NOVEL AZATRICYCLIC COMPOUND AND USE THEREOF” (BETTA PHARMACEUTICALS CO., LTD, priority 2018, published 2021)

How the values were obtained:
[1] = Hygroscopicity assessment by dynamic vapor sorption (DVS); type: physicochemical; conditions: weight change between 0% RH to 80% RH, 25° C.
Description: The hygroscopicity of the sample (the sample is a variety of crystal forms shown in Table 26) was tested using dynamic vapor sorption (DVS) instrument, and the water uptake of the sample at 0% RH (relative humidity) to 80% RH was tested.

[2] = Stability assessment (influencing factors, 14 days; XRD, TGA, HPLC); type: physicochemical; conditions: for Crystalline form (XRD) / Decrease value of the main ingredient content (HPLC) / Weight loss (TGA): 14th day
Description: Samples and preparation of experimental: An appropriate amount of maleate salt crystalline form 1, methanesulfonate salt crystalline form 1 and the compound of Formula I were put in watch glasses, and then spread into a thin layer about 3-5 mm in thickness.
Experimental conditions: Under conventional (25° C., avoid light), high temperature (60° C., avoid light), high temperature and high humidity (40° C./75% RH, open and avoid light), light (25° C., 4500 lux±500 lux, open) and oxidation (40° C., container closure containing urea hydrogen peroxide, open and avoid light) conditions for 14 days.
Test items: Sampled on 0th day and 14th day, the XRD, TGA and HPLC were tested and compared, the test results on the 14th day were show in Table 27.

NCI-H1581 cells = assay: cells; conditions: Homo sapiens, NCI-H1581, read-out: IC50 on NCI-H1581 cells
Description: 100 μl of CellTiter-Glo reagent was added to the assay plate and incubated for 10 min at room temperature to stabilize the luminescence signal.

SNU-16 cells = assay: Cell proliferation assay (CellTiter Glo); type: cell-based; conditions: Homo sapiens, growth inhibition in vitro, 96 hrs
Description: Test method: the cells were added appropriate volume of whole medium to suspend. 100 μl of the cell suspension was added to a 96-well plate and placed in a CO2 incubator overnight. Tested compounds were dissolved in DMSO and subjected to a 3-fold gradient dilution for a total of 10 concentrations. Tested compound and DMSO reference materials were transferred to the corresponding wells containing 100 μl of medium respectively. Incubated in 5% CO2 at 37° C. for 96 hrs. 100 μl of CellTiter-Glo reagent was added to the assay plate and incubated for 10 min at room temperature to stabilize the luminescence signal. The IC50 value was calculated by recording the RLU (relative luminescence unit) using VICTOR TM X5 instrument.

[3] = Pharmacokinetic study of compound of Formula I and maleate salt crystalline form 1 (Example 22); type: in vivo; conditions: male, rat, plasma, SD rats, oral, 10 mg/kg, 10% DMSO/10% Solutol/80% Water
From the text: Drugs and reagents: 6-(2-chloro-3,5-dimethoxyphenyl)-N-(4-(4-morpholinopiperidin-1-yl)phenyl)-[1,2,4]triazolo[4′, 3′:1,6]pyrido[2,3-d]pyrimidin-2-amine (compound of Formula I), and maleate salt crystalline form 1 of the compound of Formula I used in this study were grounded to fine particles. The material content (purity) was not less than 99.0%.
Experimental animals: SD rats were randomly divided into the compound of Formula I group and maleate salt crystalline form 1 group, each group including three male rats.
Pharmaceutical preparation: each compound was prepared into a clear solution in 10% DMSO/10% Solutol/80% Water solution, the final concentration of each compound was 1 mg/mL.
Administration and sample collection: each suspension was orally administered to fasted SD rats with a dose volume of 10 mL/kg and an administration dose of 10 mg/kg. The blood samples were collected in EDTA-K pre-anticoagulantion tubes before administration (0 h) and at 0.25 h, 0.5 h, 1 h, 2 h, 4 h, 7 h and 24 h after administration. The plasma was separated from the samples by centrifugation at 4000 rpm for 10 minutes at 4° C. The plasma was collected and stored at −80° C. for analysis.
The samples were analyzed by AB4000 API LC/MS combined with HPLC. Under liquid chromatography conditions, a phenomenex C18 2.6 u (50×2.1 mm) column was used as the stationary phase, acetonitrile-water and 0.1% formic acid were used as the mobile phase, and the injection volume was 10 μL.

[4] = Pharmacokinetic study of compound of Formula I and salt forms (Example 23); type: in vivo; conditions: male, rat, plasma, SD rats, oral, 10 mg/kg, prepared in purified water 0.5 mg/mL
From the text: Drugs and reagents: 6-(2-chloro-3,5-dimethoxyphenyl)-N-(4-(4-morpholinopiperidin-1-yl)phenyl)-[1,2,4]triazolo[4′,3′:1,6]pyrido[2,3-d]pyrimidin-2-amine (compound of Formula I) and salt forms thereof which include malate salt crystalline form, tartrate salt crystalline form, phosphate salt crystalline form, methanesulfonate salt crystalline form, hydrochloride salt crystalline form, fumarate salt crystalline form, citrate salt crystalline form, besylate salt crystalline form used in this study were ground to fine particles.
Experimental animals: SD rats were randomly divided into the compound of Formula I group and each salt crystalline form of the compound of Formula I group, each group including three male rats.
Pharmaceutical preparation: each compound was prepared in purified water, wherein, the mesylate salt crystalline form, hydrochloride salt crystalline form and besylate salt crystalline form were prepared into a clear solution, the malate salt crystalline form, tartrate salt crystalline form, phosphate salt crystalline form, fumarate salt crystalline form, citrate salt crystalline form and sulfate salt crystalline form were prepared into a suspension, and final concentration of each compound was 0.5 mg/mL. […]
The samples were analyzed by AB4000 API LC/MS combined with HPLC. […]

FGFR2 = FGFR2 (Homo sapiens, UniProt P21802); assay: Kinase assay (mobility shift assay)
FGFR2, sequence (P21802 22-821, species assumed): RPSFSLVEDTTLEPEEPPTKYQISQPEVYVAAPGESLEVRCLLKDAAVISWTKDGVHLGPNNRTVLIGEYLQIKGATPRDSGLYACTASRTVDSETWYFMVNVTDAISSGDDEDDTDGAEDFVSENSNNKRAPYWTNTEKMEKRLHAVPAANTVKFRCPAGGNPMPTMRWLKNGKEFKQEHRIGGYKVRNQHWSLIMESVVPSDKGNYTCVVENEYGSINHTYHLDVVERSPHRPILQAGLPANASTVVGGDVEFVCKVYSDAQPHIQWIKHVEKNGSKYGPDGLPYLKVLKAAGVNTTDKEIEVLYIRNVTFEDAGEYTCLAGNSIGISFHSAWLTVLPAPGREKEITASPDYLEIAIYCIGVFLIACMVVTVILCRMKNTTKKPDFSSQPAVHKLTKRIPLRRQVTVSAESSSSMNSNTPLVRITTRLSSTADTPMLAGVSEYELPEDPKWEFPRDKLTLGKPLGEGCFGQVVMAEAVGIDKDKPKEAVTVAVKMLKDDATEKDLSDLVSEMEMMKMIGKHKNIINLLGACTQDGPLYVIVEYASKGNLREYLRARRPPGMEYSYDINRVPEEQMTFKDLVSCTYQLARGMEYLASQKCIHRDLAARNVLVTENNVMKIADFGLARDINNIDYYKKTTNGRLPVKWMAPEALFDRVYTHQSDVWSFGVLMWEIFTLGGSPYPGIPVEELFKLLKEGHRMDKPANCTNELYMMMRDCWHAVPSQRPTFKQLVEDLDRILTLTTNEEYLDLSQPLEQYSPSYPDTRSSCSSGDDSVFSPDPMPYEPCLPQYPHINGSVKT
From the text: (§1) Prepare compounds: dilute test compounds to specific concentration using 100% DMSO

FGFR3 = FGFR3 (Homo sapiens, UniProt P22607); assay: Kinase assay (mobility shift assay)
FGFR3, sequence (P22607 23-806, species assumed): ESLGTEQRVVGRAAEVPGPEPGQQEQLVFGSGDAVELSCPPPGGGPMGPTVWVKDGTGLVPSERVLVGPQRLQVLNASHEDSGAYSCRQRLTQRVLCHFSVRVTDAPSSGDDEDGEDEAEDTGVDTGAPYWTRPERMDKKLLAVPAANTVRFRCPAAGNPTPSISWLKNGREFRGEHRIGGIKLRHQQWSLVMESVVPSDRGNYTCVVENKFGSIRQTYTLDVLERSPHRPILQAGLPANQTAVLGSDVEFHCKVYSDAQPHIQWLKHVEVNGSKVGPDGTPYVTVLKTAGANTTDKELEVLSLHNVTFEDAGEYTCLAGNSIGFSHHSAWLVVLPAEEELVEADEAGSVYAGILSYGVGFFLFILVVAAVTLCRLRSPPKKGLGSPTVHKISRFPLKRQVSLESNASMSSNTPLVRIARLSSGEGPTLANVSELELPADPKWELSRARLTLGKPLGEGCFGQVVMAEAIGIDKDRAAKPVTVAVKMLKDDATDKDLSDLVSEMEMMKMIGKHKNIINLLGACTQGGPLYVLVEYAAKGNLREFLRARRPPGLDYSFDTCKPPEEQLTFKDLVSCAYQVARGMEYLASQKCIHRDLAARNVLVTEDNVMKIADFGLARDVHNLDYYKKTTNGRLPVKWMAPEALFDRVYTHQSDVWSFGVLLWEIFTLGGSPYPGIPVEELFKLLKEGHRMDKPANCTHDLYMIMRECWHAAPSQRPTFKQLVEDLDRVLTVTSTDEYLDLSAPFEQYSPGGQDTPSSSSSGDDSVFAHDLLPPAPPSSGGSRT
From the text: as §1

FGFR4 = FGFR4 (Homo sapiens, UniProt P22455); assay: Kinase assay (mobility shift assay)
FGFR4, sequence (P22455 22-802, species assumed): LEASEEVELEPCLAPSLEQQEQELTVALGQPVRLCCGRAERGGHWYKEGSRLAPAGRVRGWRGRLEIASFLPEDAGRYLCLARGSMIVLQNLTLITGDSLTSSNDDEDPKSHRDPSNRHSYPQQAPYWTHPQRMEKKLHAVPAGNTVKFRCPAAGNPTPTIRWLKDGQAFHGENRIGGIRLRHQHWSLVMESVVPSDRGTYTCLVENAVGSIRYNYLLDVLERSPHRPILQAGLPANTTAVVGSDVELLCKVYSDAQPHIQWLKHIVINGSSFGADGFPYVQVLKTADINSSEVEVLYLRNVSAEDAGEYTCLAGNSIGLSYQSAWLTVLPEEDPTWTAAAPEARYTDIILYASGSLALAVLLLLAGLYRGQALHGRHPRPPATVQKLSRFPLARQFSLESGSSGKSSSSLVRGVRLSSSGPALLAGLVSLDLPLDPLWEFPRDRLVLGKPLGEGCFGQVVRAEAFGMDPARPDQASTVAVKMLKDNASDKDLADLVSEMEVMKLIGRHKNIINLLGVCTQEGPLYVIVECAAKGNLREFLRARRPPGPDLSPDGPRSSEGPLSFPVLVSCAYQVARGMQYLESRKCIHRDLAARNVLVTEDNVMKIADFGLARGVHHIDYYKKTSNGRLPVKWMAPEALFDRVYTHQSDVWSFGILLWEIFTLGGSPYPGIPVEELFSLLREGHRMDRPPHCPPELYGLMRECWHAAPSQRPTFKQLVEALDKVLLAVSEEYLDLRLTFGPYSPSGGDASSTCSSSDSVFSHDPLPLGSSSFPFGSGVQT
From the text: as §1

[5] = conventional (25° C., avoid light)
[6] = high temperature (60° C., avoid light)
[7] = high temperature and high humidity (40° C./75% RH)
[8] = oxidation (40° C., urea hydrogen peroxide)

In the case of COc1cc(OC)c(Cl)c(-c2cc3cnc(Nc4ccc(N5CCC(N6CCOCC6)CC5)cc4)nc3n3cnnc23)c1 [compound of Formula I, 6-(2-chloro-3,5-dimethoxyphenyl)-N-(4-(4-morpholinopiperidin-1-yl)phenyl)-[1,2,4]triazolo[4′,3′:1,6]pyrido[2,3-d]pyrimidin-2-amine], the water uptake [1] is reported as 15.3%, the “Crystalline form (XRD)” value [2, 5] is reported as “unchanged” and the “Decrease value of the main ingredient content (HPLC)” value (“Decrease value” for short) [2, 5] is reported as <0.4%. For the same molecule, the “Weight loss (TGA)” value [2, 5] was 20%-22%, the “Crystalline form (XRD)” value [2, 6] was “transformed” and the “Decrease value” value [2, 6] was 13.5%. The “Weight loss (TGA)” value [2, 6] was “about 18%”, the “Decrease value” value [2, 7] was <0.4% and the “Weight loss (TGA)” value [2, 7] was 20%-22%. The “Crystalline form (XRD)” value ([2]; high temperature and high humidity (40° C./75% RH, open, avoid light)) was “decrease”, the “Weight loss (TGA)” value ([2]; light (25° C., 4500 lux±500 lux)) was 20%-22% and the “Crystalline form (XRD)” value ([2]; light (25° C., 4500 lux±500 lux, open)) was “transformed”. For the same molecule, the “Decrease value” value [2, 8] was 40.3%, the “Weight loss (TGA)” value [2, 8] was “about 27%” and the “Crystalline form (XRD)” value ([2]; oxidation (40° C., urea hydrogen peroxide, open, avoid light)) was “transformed”. For the same molecule, the “stability of crystalline form (XRD, overall statement)” value ([2]; 14 days, all conditions) was “relatively low”, the IC50 (NCI-H1581 cells) was 2 nM and the IC50 (SNU-16 cells) was < 1 nM. The AUC(0-inf) [3] was 6520 ng·h/mL, the Cmax [3] was 443 ng/mL and the Tmax [3] was 6 h. The half-life [3] was 7.9 h, the AUC(0-t) ([3]; read-out: AUC(0-24)) was 5870 ng·h/mL and the Cmax [4] was 179 ng/mL. The AUC(0-t) ([4]; read-out: AUC(0-24)) was 786 ng·h/mL, the IC50 (FGFR2) was 1.7 nM and the IC50 (FGFR3) was 1.2 nM. The IC50 (FGFR4) was 21 nM.
